Data set [1] has as its target T1, rA1 adenosine receptor (Rattus norvegicus, UniProt P25099).
T1 construct: membranes of rat brain (150-200 μg- of protein/assay); from tissue; host or cells: whole brain of male Wistar rats
T1 sequence (P25099 1-326): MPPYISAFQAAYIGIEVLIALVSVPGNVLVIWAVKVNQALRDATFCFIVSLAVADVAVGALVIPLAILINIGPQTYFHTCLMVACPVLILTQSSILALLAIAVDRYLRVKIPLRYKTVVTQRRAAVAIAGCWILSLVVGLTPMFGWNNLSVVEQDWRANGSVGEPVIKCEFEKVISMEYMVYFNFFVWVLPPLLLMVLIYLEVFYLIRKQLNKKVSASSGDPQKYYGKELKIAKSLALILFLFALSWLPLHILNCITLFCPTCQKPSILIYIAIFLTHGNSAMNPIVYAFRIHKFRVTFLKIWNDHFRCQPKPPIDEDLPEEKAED
Briefly: Rat A1 adenosine receptor binding assay, [3H]CHA displacement, rat brain membranes.
Description: (§4) Male Wistar rats (200-250 g) were decapitated and the whole brain and striatum dissected on ice. […] The homogenate was centrifuged at 48,000 for 10 min, and the pellet was resuspended in the same buffer containing 2 IU/mL adenosine deaminase. After 30 min incubation at 37° C., the membranes were centrifuged and pellets were stored at −80° C. Prior to freezing, an aliquot of homogenate was removed for protein assay with bovine albumin as reference standard. Binding assays were performed on rat brain and striatum membranes respectively, in the presence of 10 mM MgCl2 at 25° C.
(§5) Separation of bound from free radio ligand was performed by rapid filtration through Whatman GF/B filters which were washed three times with ice-cold buffer. Filter bound radioactivity was measured by scintillation spectrometry after addition of 5 mL of Aquassure. […] Ki values were calculated from the Cheng-Prusoff equation. All binding data were analyzed using the nonlinear regression curve-fitting computer program LIGAND.

Data set [2] has as its target T2, human recombinant A3 adenosine receptor (Homo sapiens, UniProt P0DMS8).
T2 sequence (P0DMS8 1-318): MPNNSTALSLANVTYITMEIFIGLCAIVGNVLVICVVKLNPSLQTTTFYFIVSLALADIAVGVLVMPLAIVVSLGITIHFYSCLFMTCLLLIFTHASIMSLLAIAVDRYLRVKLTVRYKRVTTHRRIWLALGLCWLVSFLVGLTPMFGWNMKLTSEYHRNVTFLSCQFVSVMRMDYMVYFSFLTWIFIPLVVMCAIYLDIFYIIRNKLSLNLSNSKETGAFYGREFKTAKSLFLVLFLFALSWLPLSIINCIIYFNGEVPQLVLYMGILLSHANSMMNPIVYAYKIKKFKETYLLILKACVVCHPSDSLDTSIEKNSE
Briefly: Human cloned A3 adenosine receptor binding assay, [125I]AB-MECA, HEK-293 membranes. The arrangement: USA; host or cells: HEK-293.

The target in data set [3] is T3, rA2A adenosine receptor (Rattus norvegicus, UniProt P30543).
T3 construct: membranes of rat striatum (80-100 μmg of protein/assay); from tissue; host or cells: striatum of male Wistar rats
T3 sequence (P30543 whole entry): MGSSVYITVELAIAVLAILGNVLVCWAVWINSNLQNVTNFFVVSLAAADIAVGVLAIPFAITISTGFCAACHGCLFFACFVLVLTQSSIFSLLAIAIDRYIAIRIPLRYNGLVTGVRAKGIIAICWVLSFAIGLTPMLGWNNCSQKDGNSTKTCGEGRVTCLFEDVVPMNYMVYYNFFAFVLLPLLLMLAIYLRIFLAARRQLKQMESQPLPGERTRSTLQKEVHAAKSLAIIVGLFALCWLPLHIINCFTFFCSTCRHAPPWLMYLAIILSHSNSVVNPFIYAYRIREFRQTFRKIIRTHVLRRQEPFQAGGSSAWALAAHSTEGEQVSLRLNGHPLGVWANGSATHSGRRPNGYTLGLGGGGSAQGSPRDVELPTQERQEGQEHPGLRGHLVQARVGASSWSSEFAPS
Briefly: Rat A2A adenosine receptor binding assay, [3H]SCH58261 displacement, rat striatum membranes. The note with it: rat striatum membranes, [3H]SCH58261; read-out: rA2A (Ki).
Description: as §4, §5

The next data set in a line: Solubility in water. It counts as physicochemical.
Data set [4] has as its target T4, human recombinant A1 adenosine receptor (Homo sapiens, UniProt P30542).
T4 construct: expressed in transfected cells; host or cells: CHO
T4 sequence (P30542 1-326): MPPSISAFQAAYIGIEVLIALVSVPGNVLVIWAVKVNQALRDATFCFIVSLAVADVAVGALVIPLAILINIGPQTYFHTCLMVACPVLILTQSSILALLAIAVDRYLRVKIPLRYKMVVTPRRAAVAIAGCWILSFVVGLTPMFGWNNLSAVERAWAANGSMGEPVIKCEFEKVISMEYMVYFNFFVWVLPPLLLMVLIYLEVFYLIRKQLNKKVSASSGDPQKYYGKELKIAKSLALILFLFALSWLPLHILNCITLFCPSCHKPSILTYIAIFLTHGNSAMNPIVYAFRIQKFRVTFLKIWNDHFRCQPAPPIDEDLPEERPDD
In words: Human cloned A1 receptor binding, [3H]-DPCPX, CHO cells. The settings on record: hydrochloride, read-out: hA1 (Ki). The method, then: (§1) The expression of the human A1, A2A, A2B and A3 receptors in CHO cells has been previously described (Klotz et al., 1998). The cells are grown adherently and maintained in Dulbecco's modified Eagle's medium with nutrient mixture F12 without nucleosides at 37 ° C. in 5% CO2/95% air. Cells are split two or three times weekly and then the culture medium is removed for membrane preparations. The cells are washed with phosphate-buffered saline and scraped off flasks in ice cold hypotonic buffer (5 mM Tris HCl, 2 mM EDTA, pH 7.4). The cell suspension is homogenized with Polytron and the homogenate is centrifuged for 30 min. at 48,000 g. The membrane pellet is re-suspended in 50 mM Tris HCl buffer at pH 7.4 for A1 adenosine receptors, in 50 mM Tris HCl, 10 mM MgCl2 at pH 7.4 for A2A adenosine receptors, in 50 mM Tris HCl, 10 mM MgCl2, 1 mM EDTA at pH 7.4 for A3 adenosine receptors and are utilized for binding and adenylate cyclase assays.
Binding of [^3H]-DPCPX to CHO cells transfected with the human recombinant A1 adenosine receptor is performed according to the method previously described by Klotz and coworkers (Klotz, K. N.; Cristalli, G.; Grifantini, M.; Vittori, S.; Lohse, M. J., “Photoaffinity labeling of A1 adenosine receptors,” J. Biol. Chem., 260, 14659-14664, 1985).
(§2) Displacement experiments are performed for 120 min. at 25° C. in 0.20 mL of buffer containing 1 nM [^3H]-DPCPX, 20 μL of diluted membranes (50 μg of protein/assay) and at least 6-8 different concentrations of examined compounds. Non-specific binding is determined in the presence of 10 μM of CHA and this is always 10% of the total binding. Binding of [^3H]-SCH58261 to CHO cells transfected with the human recombinant A2A adenosine receptors (50 μg of protein/assay) was performed according to Varani et al. (Varani, K; Cacciari, B.; Baraldi, P. G.; Dionisotti, S.; Ongini, E.; Borea, P. A., “Binding affinity of adenosine receptor agonists and antagonists at human cloned […] adenosine receptors,” Life Sci., 63, 81-87, 1998). In competition studies, at least 6-8 different concentrations of compounds are used and non-specific binding is determined in the presence of 50 μM NECA for an incubation time of 60 min. at 25° C.

Data set [5] concerns the target T5, human recombinant A2A adenosine receptors (Homo sapiens, UniProt P29274).
T5 construct: expressed in transfected cells; host or cells: CHO
In words: Human cloned A2A receptor binding, [3H]-SCH58261, CHO cells. The note with it: hydrochloride, read-out: hA2A (Ki). The method, then:
as §1, §2

The target in data set [6] is T6, human recombinant A2B adenosine receptors (Homo sapiens, UniProt P29275).
T6 construct: host or cells: HEK-293
T6 sequence (P29275 1-332): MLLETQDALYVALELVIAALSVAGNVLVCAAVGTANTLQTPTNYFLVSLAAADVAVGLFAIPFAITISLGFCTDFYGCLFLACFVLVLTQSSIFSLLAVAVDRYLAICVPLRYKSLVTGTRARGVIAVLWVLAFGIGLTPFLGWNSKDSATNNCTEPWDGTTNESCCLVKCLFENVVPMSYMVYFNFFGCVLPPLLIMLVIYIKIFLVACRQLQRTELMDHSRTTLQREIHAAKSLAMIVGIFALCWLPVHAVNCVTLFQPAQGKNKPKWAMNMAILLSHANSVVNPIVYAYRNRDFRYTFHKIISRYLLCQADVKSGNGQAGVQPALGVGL
Briefly: Human cloned A2B receptor binding, [3H]-DPCPX, HEK-293 cells. The note with it: hydrochloride, read-out: hA2B (Ki). The method, then: Binding of [^3H]-DPCPX to HEK-293 cells (Receptor Biology, Inc., Beltsville, Md.) transfected with the human recombinant A2B adenosine receptors is performed essentially to the method described by Varani and coworkers (Mol. Pharmacol.). In particular, assays are carried out for 60 min. at 25° C. in 0.1 mL of 50 mM Tris HCl Buffer, 10 mM MgCl2, 1 mM EDTA, 0.1 mM benzamidine pH 7.4, 2 IU/ml adenosine deaminase containing 40 nM [^3H]-DPCPX, diluted membranes (20 µg of protein/assay) and at least 6-8 different concentration of tested compounds. Non-specific binding is determined in the presence of 100 μM of NECA and is always 30% of the total binding.

A further data set has as its target T7, adenosine A3 receptor (Homo sapiens, UniProt P0DMS8).
T7 construct: expressed in transfected cells; host or cells: CHO
T7 sequence (P0DMS8 1-318): T2 sequence (P0DMS8 1-318)
In words: Adenylate cyclase assay: block of agonist-induced inhibition of cAMP production. Format: biochemical. The settings on record: FIG. 2, comparison in words. The method, then: as §1
Membrane preparation is suspended in 0.5 mL of incubation mixture (50 mM Tris HCl, MgCl2 10 mM, EDTA, 1 mM, pH 7.4) containing GTP 5 µM, 0.5 mM 4-(3-buthoxy-4-methoxybenzyl)-2-imidazolidinone (Ro 20-1274) as phosphodiesterase inhibitor, 2.0 IU/mL adenosine deaminase and pre-incubated for 10 min. in a shaking bath at 37° C. […]
For orientation: cAMP levels reflect the balance of adenylyl cyclase and phosphodiesterase activity.

Data set [7] has as its target T3, rA2A adenosine receptor. The note with it: values taken from Kim et al., J. Med. Chem. 1996; cited from earlier work.
Data set [8] addresses T1, rA1 adenosine receptor. The settings on record: values taken from Kim et al., J. Med. Chem. 1996; cited from earlier work.
Data set [9] has as its target T8, human A3 receptors expressed in HEK 293 cells (Homo sapiens, UniProt P0DMS8).
T8 sequence (P0DMS8 1-318): T2 sequence (P0DMS8 1-318)
The settings on record: saturation curve, FIG. 1, n=3.

Data set [10] deals with T9, A3 receptor in Jurkat cell membranes (Homo sapiens, UniProt P0DMS8).
T9 sequence (P0DMS8 1-318): T2 sequence (P0DMS8 1-318)

Another data set deals with JURKAT cell membranes. In words: [125I]-ABMECA binding on tumor cell line membranes. On the set-up: species or system human. The note with it: 0.5 nM radioligand. The method, then: (§3) A series of binding experiments were performed on various tumor cell lines, using 0.5 nM [^125I]-ABMECA, with unspecific binding determined in the presence of 50 μM R-PIA or 200 μM NECA, on cell membranes of the cell lines. Specific binding was determined by substracting unspecific binding from total binding. The cell lines were the HL 60, NB4, SKN-MC, SKN-Be2C, SKN-SH and JURKAT cell lines.

The subject of a further data set is HL 60 cell membranes. Briefly: [125I]-ABMECA binding on tumor cell line membranes. On the set-up: species or system human. The note with it: HL 60, 0.5 nM radioligand. The method, then: as §3
The next data set concerns SKN-SH cell membranes. Briefly: [125I]-ABMECA binding on tumor cell line membranes. The settings on record: 0.5 nM radioligand. The method, then:
as §3

A further data set has as its system SKN-MC cell membranes. Briefly: [125I]-ABMECA binding on tumor cell line membranes. The note with it: 0.5 nM radioligand. The method, then:
as §3

For the next data set, the system named is NB4 cell membranes. Briefly: [125I]-ABMECA binding on tumor cell line membranes. The settings on record: NB4, 0.5 nM radioligand. The method, then:
as §3

For the next data set, the system named is SKN-Be2C cell membranes. Briefly: [125I]-ABMECA binding on tumor cell line membranes. The note with it: 0.5 nM radioligand. The method, then: as §3

As usually defined, the melting point is the temperature of the solid-liquid transition. For orientation: Ki means the dissociation constant of the complex between target and ligand, obtained from inhibition or displacement.

Structures are written as SMILES. Like-named read-outs stand apart in the source and are kept apart here.

T5 sequence (P29274 whole entry): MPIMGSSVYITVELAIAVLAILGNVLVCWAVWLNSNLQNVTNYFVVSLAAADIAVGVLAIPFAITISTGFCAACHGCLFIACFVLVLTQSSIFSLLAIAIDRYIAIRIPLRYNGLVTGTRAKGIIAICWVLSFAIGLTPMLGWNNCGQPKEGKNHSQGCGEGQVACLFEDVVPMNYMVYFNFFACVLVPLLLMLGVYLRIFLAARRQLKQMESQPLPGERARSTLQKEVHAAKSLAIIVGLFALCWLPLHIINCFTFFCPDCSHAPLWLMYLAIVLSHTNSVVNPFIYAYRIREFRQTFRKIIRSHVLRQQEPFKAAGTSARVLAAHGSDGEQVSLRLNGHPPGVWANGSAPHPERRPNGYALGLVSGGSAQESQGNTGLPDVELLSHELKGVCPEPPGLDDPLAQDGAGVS

In the case of `CC(C)CCn1cc2c(nc(NC(=O)Cc3ccccc3)n3nc(-c4ccco4)nc23)n1` [Compound 58, 5-[(Benzyl)carbonyl]amino-8-isopentyl-2-(2-furyl)-pyrazolo[4,3.e]1,2,4-triazolo[1,5-c]pyrimidine], the melting point fell in the range of 144 to 145 °C. At rA1 adenosine receptor [1], this compound showed an inhibitory constant (Ki) of 373 nM. For the same compound, the Ki in [2] (HEK-293 membranes, [125I]AB-MECA, read-out: hA3 (Ki)) is 81.1 nM. Moreover, in data set [2] (selectivity ratio of Ki values), the rA1/hA3 turned out to be 4.6 and the rA2A/hA3 was determined as 4. Moreover, the Ki at rA2A adenosine receptor [3] was 323 nM.
`Cl.Cn1cc2c(nc(NC(=O)Nc3ccncc3)n3nc(-c4ccco4)nc23)n1` [Compound 107, N-[2-(2-furyl)-8-methyl-8H-pyrazolo[4,3-e][1,2,4]triazolo[1,5-c]pyrimidin-5-yl]-N′-pyridin-4-ylurea hydrochloride]: the solubility in water entry in the data set “Solubility in water” was “soluble in water”. The Ki was found to be 350 nM in [4], 100 nM in data set [5] and 250 nM in data set [6]. Moreover, the “potency of adenosine A3 antagonism (block of C1-IB-MECA induced inhibition of cAMP production)” value at adenosine A3 receptor is listed as “comparable”.
Turning to `O=C(Cc1ccccc1)Nc1nc2ccc(Cl)cc2c2nc(-c3ccco3)nn12` [MRS 1220], the Ki at rA2A adenosine receptor [7] is 52 ± 8.8 nM; at rA1 adenosine receptor [8] it was 305 ± 51 nM.
Turning to `CNC(=O)[C@H]1O[C@@H](n2cnc3c(NCc4ccc(N)c([125I])c4)ncnc32)[C@H](O)[C@@H]1O` [[^125I]AB-MECA, [^125I]N^6-(4-amino-3-iodobenzyl)adenosine-5′N-methyluronamide], the Bmax value in [9] is on record as 62±1 fmol/mg protein. For the same compound, the “Bmax (fmol/mg protein) / density of A3 receptor detected” value in [10] (FIG. 3) is given as “approximately 300 fmol/mg protein”; in data set [10] (FIG. 3, listed as [^125I]-ABMECA) it was 290 fmol/mg protein. Also, the “Percent Specific Binding” value is on record as 38% with JURKAT cell membranes; 20% with HL 60 cell membranes; 3% in the data set with SKN-SH cell membranes; 17% in the data set with SKN-MC cell membranes; 19% with NB4 cell membranes; 24% with SKN-Be2C cell membranes. In addition, the “Specific Binding (cpm)” value is reported as 2846 cpm in the data set with JURKAT cell membranes; 693 cpm in the data set on HL 60 cell membranes; 91 cpm with SKN-SH cell membranes; 1308 cpm in the data set with SKN-MC cell membranes; 637 cpm in the data set with NB4 cell membranes; 1415 cpm with SKN-Be2C cell membranes.

The values are drawn from patent US7271171B2, “Adenosine A3 receptor modulators” (King Pharmaceuticals Research and Development, Inc., priority 1998, dated 2007).
